Patent US12077503B2, “Substituted cyclic amides and their use as herbicides” (FMC CORPORATION, priority 2015, dated 2024)

How the values were obtained:
Format in all cases: in vivo
[1] = test system: giant foxtail (Setaria faberi); experiment: Test G Pre-Emergence Protocol; settings: Setaria faberi, pre-emergence, 312 h, evaluated after 13 days; for pest or weed control at 15.625 g/ha: 15.625 g ai/ha; for pest or weed control at 15.625 g/ha / pest or weed control at 250 g/ha: read-out: Foxtail, Giant damage rating (100=total damage to plant; 0=no damage to plant); for pest or weed control at 62.5 g/ha: 62.5 g ai/ha, 100=total damage to plant, 0=no damage to plant, read-out: Foxtail, Giant damage rating; for pest or weed control at 250 g/ha: 250 g ai/ha
Method in brief: (§1)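 Glasshouse pre-emergence test: soil-sown seeds, sprayed after 1 d at 15.625, 62.5 or 250 g/ha. Conditions 24/16° C day/night, 14 h light, 65% humidity, watering twice daily. Rating 13 d post-spray (100 = total damage).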

corn (Zea mays) [2] = experiment: Test G Pre-Emergence Protocol; settings: Zea mays, pre-emergence, 312 h, evaluated after 13 days; for plant injury at 15.625 g/ha: 15.625 g ai/ha; for plant injury at 15.625 g/ha / plant injury at 250 g/ha: read-out: Corn damage rating (100=total damage to plant; 0=no damage to plant); for plant injury at 62.5 g/ha: 62.5 g ai/ha, 100=total damage to plant, 0=no damage to plant, read-out: Corn damage rating; for plant injury at 250 g/ha: 250 g ai/ha
Method in brief: as §1

[3] = test system: redroot pigweed (Amaranthus retroflexus); experiment: Test G Pre-Emergence Protocol; settings: Amaranthus retroflexus, pre-emergence, 312 h, evaluated after 13 days; for pest or weed control at 15.625 g/ha: 15.625 g ai/ha; for pest or weed control at 15.625 g/ha / pest or weed control at 250 g/ha: read-out: Pigweed, Redroot damage rating (100=total damage to plant; 0=no damage to plant); for pest or weed control at 62.5 g/ha: 62.5 g ai/ha, 100=total damage to plant, 0=no damage to plant, read-out: Pigweed, Redroot damage rating; for pest or weed control at 250 g/ha: 250 g ai/ha
Method in brief: as §1

[4] = test system: velvetleaf (Abutilon theophrasti); experiment: Test G Pre-Emergence Protocol; settings: Abutilon theophrasti, pre-emergence, 312 h, evaluated after 13 days; for pest or weed control at 15.625 g/ha: 15.625 g ai/ha; for pest or weed control at 15.625 g/ha / pest or weed control at 250 g/ha: read-out: Velvetleaf damage rating (100=total damage to plant; 0=no damage to plant); for pest or weed control at 62.5 g/ha: 62.5 g ai/ha, 100=total damage to plant, 0=no damage to plant, read-out: Velvetleaf damage rating; for pest or weed control at 250 g/ha: 250 g ai/ha
Method in brief: as §1

[5] = test system: barnyardgrass (Echinochloa crus-galli); experiment: Test G Pre-Emergence Protocol; settings: Echinochloa crus-galli, pre-emergence, 312 h, evaluated after 13 days; for pest or weed control at 15.625 g/ha: 15.625 g ai/ha; for pest or weed control at 15.625 g/ha / pest or weed control at 250 g/ha: read-out: Barnyardgrass damage rating (100=total damage to plant; 0=no damage to plant); for pest or weed control at 62.5 g/ha: 62.5 g ai/ha, 100=total damage to plant, 0=no damage to plant, read-out: Barnyardgrass damage rating; for pest or weed control at 250 g/ha: 250 g ai/ha
Method in brief: as §1

[6] = test system: ivy-leaved morning glory (Ipomoea hederacea); experiment: Test G Pre-Emergence Protocol; settings: Ipomoea, pre-emergence, 312 h, evaluated after 13 days; for pest or weed control at 62.5 g/ha: 62.5 g ai/ha, 100=total damage to plant, 0=no damage to plant, read-out: Morningglory, Ivy-leaved damage rating; for pest or weed control at 250 g/ha: 250 g ai/ha
Method in brief: as §1

[7] = test system: giant foxtail (Setaria faberi); experiment: Test G Post-Emergence Protocol; settings: Setaria faberi, post-emergence, 312 h, read-out: Foxtail, Giant damage rating; for pest or weed control at 15.625 g/ha: 15.625 g ai/ha, evaluated after 13 days (100=total damage to plant; 0=no damage to plant); for pest or weed control at 62.5 g/ha: 62.5 g ai/ha
Method in brief: (§2)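 A glasshouse post-emergence test: 8-day-old plants sprayed at 15.625, 62.5 or 250 g/ha, then grown at 24/16 °C day/night with 14 h light and 65% humidity. Damage rated 13 days later, 0–100.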

corn (Zea mays) [8] = experiment: Test G Post-Emergence Protocol; settings: Zea mays, post-emergence, 312 h, read-out: Corn damage rating; for plant injury at 15.625 g/ha: 15.625 g ai/ha, evaluated after 13 days (100=total damage to plant; 0=no damage to plant); for plant injury at 62.5 g/ha: 62.5 g ai/ha; for plant injury at 62.5 g/ha / plant injury at 250 g/ha: evaluated after 13 days, 100=total damage to plant, 0=no damage to plant; for plant injury at 250 g/ha: 250 g ai/ha
Method in brief: as §2

[9] = test system: redroot pigweed (Amaranthus retroflexus); experiment: Test G Post-Emergence Protocol; settings: Amaranthus retroflexus, post-emergence, 312 h, read-out: Pigweed, Redroot damage rating; for pest or weed control at 15.625 g/ha: 15.625 g ai/ha, evaluated after 13 days (100=total damage to plant; 0=no damage to plant); for pest or weed control at 62.5 g/ha: 62.5 g ai/ha; for pest or weed control at 62.5 g/ha / pest or weed control at 250 g/ha: evaluated after 13 days, 100=total damage to plant, 0=no damage to plant; for pest or weed control at 250 g/ha: 250 g ai/ha
Method in brief: as §2

[10] = test system: velvetleaf (Abutilon theophrasti); experiment: Test G Post-Emergence Protocol; settings: Abutilon theophrasti, post-emergence, 312 h, read-out: Velvetleaf damage rating; for pest or weed control at 15.625 g/ha: 15.625 g ai/ha, evaluated after 13 days (100=total damage to plant; 0=no damage to plant); for pest or weed control at 62.5 g/ha: 62.5 g ai/ha; for pest or weed control at 62.5 g/ha / pest or weed control at 250 g/ha: evaluated after 13 days, 100=total damage to plant, 0=no damage to plant; for pest or weed control at 250 g/ha: 250 g ai/ha
Method in brief: as §2

[11] = test system: barnyardgrass (Echinochloa crus-galli); experiment: Test G Post-Emergence Protocol; settings: Echinochloa crus-galli, post-emergence, 312 h, read-out: Barnyardgrass damage rating; for pest or weed control at 15.625 g/ha: 15.625 g ai/ha, evaluated after 13 days (100=total damage to plant; 0=no damage to plant); for pest or weed control at 62.5 g/ha: 62.5 g ai/ha; for pest or weed control at 62.5 g/ha / pest or weed control at 250 g/ha: evaluated after 13 days, 100=total damage to plant, 0=no damage to plant; for pest or weed control at 250 g/ha: 250 g ai/ha
Method in brief: as §2

[12] = test system: ivy-leaved morning glory (Ipomoea hederacea); experiment: Test G Post-Emergence Protocol; settings: Ipomoea, post-emergence, 312 h, read-out: Morningglory, Ivy-leaved damage rating; for pest or weed control at 15.625 g/ha: 15.625 g ai/ha, evaluated after 13 days (100=total damage to plant; 0=no damage to plant); for pest or weed control at 62.5 g/ha: 62.5 g ai/ha; for pest or weed control at 62.5 g/ha / pest or weed control at 250 g/ha: evaluated after 13 days, 100=total damage to plant, 0=no damage to plant; for pest or weed control at 250 g/ha: 250 g ai/ha
Method in brief: as §2

[13] = read-out: Morningglory, Ivy-leaved damage rating (100=total damage to plant; 0=no damage to plant)
[14] = evaluated after 13 days, 100=total damage to plant, 0=no damage to plant

SMILES | pest or weed control at 15.625 g/ha [1] [%] | pest or weed control at 62.5 g/ha [1] [%] | pest or weed control at 250 g/ha [1] [%] | plant injury at 15.625 g/ha (corn (Zea mays) [2]) [%] | plant injury at 62.5 g/ha (corn (Zea mays) [2]) [%] | plant injury at 250 g/ha (corn (Zea mays) [2]) [%] | pest or weed control at 15.625 g/ha [3] [%] | pest or weed control at 62.5 g/ha [3] [%] | pest or weed control at 250 g/ha [3] [%] | pest or weed control at 15.625 g/ha [4] [%] | pest or weed control at 62.5 g/ha [4] [%] | pest or weed control at 250 g/ha [4] [%] | pest or weed control at 15.625 g/ha [5] [%] | pest or weed control at 62.5 g/ha [5] [%] | pest or weed control at 250 g/ha [5] [%] | pest or weed control at 62.5 g/ha [6] [%] | pest or weed control at 250 g/ha [6, 13] [%] | pest or weed control at 15.625 g/ha [7] [%] | pest or weed control at 62.5 g/ha [7, 14] [%] | plant injury at 15.625 g/ha (corn (Zea mays) [8]) [%] | also measured
Cc1cc(C2CN(C)C(=O)C2C(=O)Nc2cccc(F)c2F)cc(C)c1Cl (stereo not shown) [Compound 1700] | 40 | 80 | 90 | 0 | 0 | 30 | 0 | 0 | 0 | 0 | 0 | 0 | 20 | 50 | 70 | 10 | 20 | 40 | 60 | 30 | pest or weed control at 250 g/ha ([7]; 250 g ai/ha, evaluated after 13 days, 100=total damage to plant, 0=no damage to plant): 70%; plant injury at 62.5 g/ha (corn (Zea mays) [8]): 30%; plant injury at 250 g/ha (corn (Zea mays) [8]): 40%; pest or weed control at 15.625 g/ha [9]: 0%; pest or weed control at 62.5 g/ha [9]: 0%; pest or weed control at 250 g/ha [9]: 0%; pest or weed control at 15.625 g/ha [10]: 0%; pest or weed control at 62.5 g/ha [10]: 0%; pest or weed control at 250 g/ha [10]: 0%; pest or weed control at 15.625 g/ha [11]: 20%; pest or weed control at 62.5 g/ha [11]: 50%; pest or weed control at 250 g/ha [11]: 70%; pest or weed control at 15.625 g/ha [12]: 20%; pest or weed control at 62.5 g/ha [12]: 20%; pest or weed control at 250 g/ha [12]: 60%
CN1C[C@H](c2ccc(F)c(F)c2)[C@@H](C(=O)Nc2cnccc2C(F)(F)F)C1=O (racemic) [Compound 1740] | 0 | 60 | 90 | 0 | 0 | 10 | 0 | 0 | 40 | 0 | 0 | 50 | 0 | 30 | 40 | 0 | 0 | 0 | 40 | 0 | pest or weed control at 15.625 g/ha ([6]; 15.625 g ai/ha, read-out: Morningglory, Ivy-leaved damage rating (100=total damage to plant; 0=no damage to plant)): 0%; plant injury at 62.5 g/ha (corn (Zea mays) [8]): 0%; plant injury at 250 g/ha (corn (Zea mays) [8]): 0%; pest or weed control at 15.625 g/ha [9]: 0%; pest or weed control at 62.5 g/ha [9]: 0%; pest or weed control at 250 g/ha [9]: 0%; pest or weed control at 15.625 g/ha [10]: 0%; pest or weed control at 62.5 g/ha [10]: 0%; pest or weed control at 250 g/ha [10]: 10%; pest or weed control at 15.625 g/ha [11]: 0%; pest or weed control at 62.5 g/ha [11]: 0%; pest or weed control at 250 g/ha [11]: 20%; pest or weed control at 15.625 g/ha [12]: 0%; pest or weed control at 62.5 g/ha [12]: 0%; pest or weed control at 250 g/ha [12]: 20%
